Data taken from DBAASP.
Converted amounts (≈) assume the structure as drawn.

Experiments:
Experiment in all cases: ≥ marks a high value that may be exact or a test limit, other limits are often not marked, values filed in µg/mL are converted to µM
[1] = system: Salmonella enterica subsp. enterica serovar Enteritidis ATCC 13076
[2] = system: Bacillus cereus ATCC 11778
[3] = system: Staphylococcus aureus ATCC 29213
[4] = system: Escherichia coli ATCC 25922
[5] = system: Pseudomonas aeruginosa ATCC 27853
[6] = system: Klebsiella pneumoniae ATCC 700603
[7] = system: Serratia marcescens ATCC 21202
[8] = system: Streptococcus pyogenes ATCC 19615
[9] = system: Staphylococcus aureus NCTC 12493
[10] = system: Acinetobacter baumannii Q12-0867
[11] = system: Staphylococcus aureus Q14-0320
[12] = system: Pseudomonas aeruginosa PAO1
[13] = system: Staphylococcus aureus MRSA-15
[14] = system: Campylobacter jejuni NCTC 11351
[15] = system: Klebsiella pneumoniae NCTC 13442
[16] = system: Pseudomonas aeruginosa Q14-0208
[17] = system: Staphylococcus aureus RN4220
[18] = system: Salmonella typhimurium SL1344
[19] = system: Klebsiella pneumoniae Q14-0095
[20] = system: Escherichia coli
[21] = system: Pseudomonas aeruginosa Q12-0535
[22] = system: Acinetobacter baumannii Q12-0809
[23] = system: Enterococcus faecalis JH-2-2
[24] = system: Pseudomonas aeruginosa Q14-0890
[25] = system: Campylobacter jejuni
[26] = system: Escherichia coli K-12
[27] = system: Listeria monocytogenes NCTC 11994
[28] = system: Acinetobacter baumannii Q13-0717
[29] = system: Staphylococcus aureus CICC 10306
[30] = system: Listeria innocua CICC 10417
[31] = system: Enterobacter cloacae CICC 21539
[32] = system: Staphylococcus aureus CICC 10384
[33] = system: Serratia marcescens ATCC 4112
[34] = system: Bacillus subtilis CICC 10034
[35] = system: Escherichia coli CICC 10293
[36] = system: Salmonella enterica subsp. enterica serovar Paratyphi B CICC 10437
[37] = system: Pseudomonas aeruginosa CICC 21636
[38] = system: Bacillus amyloliquefaciens ATCC 23842
[39] = system: Pseudomonas aeruginosa PA14
[40] = system: Escherichia coli NDM
[41] = system: Enterococcus faecium
[42] = system: Staphylococcus aureus MR
[43] = system: Bacillus cereus ATCC 14579
[44] = system: Bacillus licheniformis ATCC 14580
[45] = system: Acinetobacter baumannii AB5075
[46] = system: Bacillus subtilis ATCC 6051
[47] = system: Enterococcus faecalis A4
[48] = system: Escherichia coli W3110
[49] = system: Enterococcus faecalis 1F-1
[50] = system: Staphylococcus aureus 215
[51] = system: Staphylococcus aureus
[52] = system: Enterococcus faecium 5F-10

An MIC [1] of at least 68.6 µM, an MIC [2] of at least 68.6 µM and an MIC [3] of over 68.6 µM were found for `CC[C@H](C)[C@H](N)C(=O)N[C@H](C(=O)N1CCC[C@H]1C(=O)N[C@@H](CC(C)C)C(=O)N1CCC[C@H]1C(=O)N[C@@H](CC(C)C)C(=O)NCC(=O)N[C@@H](Cc1ccc(O)cc1)C(=O)N[C@@H](Cc1ccccc1)C(=O)N[C@@H](C)C(=O)N[C@@H](CCCCN)C(=O)N[C@@H](CCCCN)C(=O)N1CCC[C@H]1C(=O)O)[C@@H](C)CC` [IIPLPLGYFAKKP] in this work. The MIC [4] was over 68.6 µM, the MIC [5] was over 68.6 µM and the MIC [6] was over 68.6 µM. It also gave an MIC [7] of at least 68.6 µM and an MIC [8] of at least 68.6 µM.
An MIC [9] of at least 52.2 µM, an MIC [10] of at least 52.2 µM and an MIC [11] of at least 52.2 µM were found for `CC[C@H](C)[C@H](NC(=O)[C@H](CO)NC(=O)[C@@H](N)CCCN=C(N)N)C(=O)N[C@H](C(=O)N[C@@H](CCCN=C(N)N)C(=O)N1CCC[C@H]1C(=O)N[C@H](C(=O)N[C@@H](CC(C)C)C(=O)N[C@H](C(=O)N[C@@H](CCCN=C(N)N)C(=O)N[C@@H](CCCN=C(N)N)C(=O)N[C@@H](CCCN=C(N)N)C(=O)N[C@@H](Cc1c[nH]c2ccccc12)C(=O)N[C@@H](CCCN=C(N)N)C(=O)N[C@H](C(=O)N[C@@H](CCCN=C(N)N)C(=O)N1CCC[C@H]1C(=O)N[C@H](C(=O)N[C@@H](Cc1ccccc1)C(=O)O)C(C)C)C(C)C)C(C)C)C(C)C)[C@@H](C)O` [RSITRPVLVRRRWRVRPVF] in this work. The MIC [12] was 209 µM (≈ 512 µg/mL), the MIC [13] was at least 102 µM and the MIC [14] was at least 52.2 µM. For the same compound, the MIC [15] was at least 52.2 µM, the MIC [16] was at least 52.2 µM and the MIC [3] was over 52.2 µM. It also gave an MIC [17] of at least 104 µM, an MIC [18] of 26.1 µM (≈ 64 µg/mL) and an MIC [5] of over 52.2 µM. The MIC [19] was at least 52.2 µM, the MIC [20] was over 52.2 µM and the MIC [21] was at least 51 µM. The MIC [22] was 26.1 µM (≈ 64 µg/mL), the MIC [23] was at least 209 µM and the MIC [24] was at least 52.2 µM. For the same compound, the MIC [25] was at least 52.2 µM, the MIC [26] was at least 104 µM and the MIC [6] was over 52.2 µM. The MIC [27] was at least 209 µM and the MIC [28] was at least 52.2 µM.
An MIC [29] of 8.54 µM (≈ 8 µg/mL), an MIC [30] of 8.54 µM (≈ 8 µg/mL) and an MIC [31] of at least 34.1 µM were found for `CSCC[C@H](NC(=O)[C@@H](NC(=O)[C@@H](N)CCCN=C(N)N)C(C)C)C(=O)N[C@@H](Cc1ccccc1)C(=O)N[C@@H](CCCCN)C(=O)N[C@@H](Cc1c[nH]c2ccccc12)C(=O)N[C@@H](C)C(=O)O` [RVMFKWA] in this work. It also gave an MIC [32] of 8.54 µM (≈ 8 µg/mL), an MIC [33] of at least 34.1 µM and an MIC [34] of at least 34.1 µM. For the same compound, the MIC [35] was 17.1 µM (≈ 16 µg/mL), the MIC [36] was at least 34.1 µM and the MIC [37] was at least 34.1 µM.
An MIC [38] of 25.2 µM (≈ 64 µg/mL), an MIC [39] of 16 µM (≈ 40.6 µg/mL) and an MIC [40] of at least 32 µM were found for `CC[C@H](C)[C@H](NC(=O)[C@H](CC(C)C)NC(=O)[C@H](CO)NC(=O)[C@@H](NC(=O)[C@H](CCC(N)=O)NC(=O)[C@H](Cc1ccc(O)cc1)NC(=O)[C@H](CCCN=C(N)N)NC(=O)[C@H](CCCN=C(N)N)NC(=O)[C@H](CCCN=C(N)N)NC(=O)[C@@H](NC(=O)[C@H](CO)NC(=O)[C@@H](NC(=O)[C@@H](N)[C@@H](C)O)[C@@H](C)O)[C@@H](C)CC)C(C)C)C(=O)N[C@@H](CCCN=C(N)N)C(=O)N[C@@H](CCCN=C(N)N)C(=O)N[C@@H](Cc1cnc[nH]1)C(=O)N[C@@H](CCCN=C(N)N)C(=O)NCC(=O)N[C@@H](CCCCN)C(=O)N[C@@H](CCCN=C(N)N)C(=O)O` [TTSIRRRYQVSLIRRHRGKR] in this work. It also gave an MIC [41] of 3.15 µM (≈ 8 µg/mL), an MIC [42] of 25.2 µM (≈ 64 µg/mL) and an MIC [43] of 25.2 µM (≈ 64 µg/mL). For the same compound, the MIC [44] was 25.2 µM (≈ 64 µg/mL), the MIC [45] was 1 µM (≈ 2.54 µg/mL) and the MIC [46] was 25.2 µM (≈ 64 µg/mL). It also gave an MIC [3] of 25.2 µM (≈ 64 µg/mL), an MIC [47] of 3.15 µM (≈ 8 µg/mL) and an MIC [48] of 16 µM (≈ 40.6 µg/mL). The MIC [49] was 3.15 µM (≈ 8 µg/mL), the MIC [50] was 12.6 µM (≈ 32 µg/mL) and the MIC [51] was 6.3 µM (≈ 16 µg/mL). The MIC [52] was 1.57 µM (≈ 4 µg/mL).
